From US20140005163A1 (NOVARTIS AG, priority 2010, published 2014)
≈ marks a conversion by molar mass, not a printed value. Read-outs that look alike come from different tables or passages of the source.

Columns and labels:
[1] = target: T1, mTOR (Homo sapiens, UniProt P42345); experiment: Biochemical assay for m-TOR by TR-FRET; conditions: 8 μM ATP, 400 nM GFP-4EBP1, 0.5 nM mTOR
T1 construct: purchased Invitrogen Corporation (Carlsbad/CA, USA) PV4753
How it was run: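 TR-FRET read-out: Tb-labelled anti-p4EBP1 pThr46 antibody (0.5 nM), added in EDTA to stop the reaction, detects phosphorylated GFP-4EBP1 after 15 min. Kinase step used 0.5 nM mTOR, 400 nM substrate, 8 μM ATP, MnCl2-containing HEPES buffer pH 7.5, room temperature.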

[2] = Solubility at pH 6.8; assay type: physicochemical
Source text: The physicochemical properties of relevance for the absorption of the compound, such as the solubility and the membrane permeability, especially at a pH close to neutral pH can be measured using the procedure as described by L. ZHOU et al. in JOURNAL OF PHARMACEUTICAL SCIENCES, VOL. 96, NO. 11, p. 3052-3071 (2007) for the solubility at pH 6.8 and the procedure as described by F. Wohnsland and B. Faller in Journal of Medicinal Chemistry Vol 44, p. 923-930 (2001) for the Parallel Artificial Membrane Permeability Assay (PAMPA) at pH 6.8.

[3] = test system: PKB Ser473 phosphorylation in Rat1-myr-HA-p110 beta cells; experiment: Reverse protein array assay, PKB Ser473 phosphorylation in Rat1-myr-p110 beta cells; assay type: cell-based; conditions: 0.5 h, pAkt Ser473, 30 minutes incubation, read-out: p-PKB IC50
How it was run: (§1)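 After at least 20 h of culture, the p110 isoform-transfected Rat1 lines receive compound in an 8-step dilution series, keeping DMSO at 0.2%, for 30 minutes. Cells are then lysed and lysates arrayed on chips for fluorescence detection of Ser473-phosphorylated PKB.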

[4] = test system: PKB Ser473 phosphorylation in Rat1-myr-HA-p110 delta cells; experiment: Reverse protein array assay, PKB Ser473 phosphorylation in Rat1-myr-p110 delta cells; assay type: cell-based; conditions: read-out: p-PKB IC50
How it was run: as §1

[5] = target: T2, PI3K alpha (Homo sapiens, UniProt P42336); experiment: PI3K alpha kinase assay (Kinase-Glo luminescence); assay type: biochemical
T2 construct: p85(iSH2) fusion partner (see partner chain) (N); His tag (C); made in house; host or cells: baculovirus; Tn5 (Trichoplusia ni) or TiniPro insect cells
T2 sequence (P42336 with tags, fused parts or gaps limits assumed): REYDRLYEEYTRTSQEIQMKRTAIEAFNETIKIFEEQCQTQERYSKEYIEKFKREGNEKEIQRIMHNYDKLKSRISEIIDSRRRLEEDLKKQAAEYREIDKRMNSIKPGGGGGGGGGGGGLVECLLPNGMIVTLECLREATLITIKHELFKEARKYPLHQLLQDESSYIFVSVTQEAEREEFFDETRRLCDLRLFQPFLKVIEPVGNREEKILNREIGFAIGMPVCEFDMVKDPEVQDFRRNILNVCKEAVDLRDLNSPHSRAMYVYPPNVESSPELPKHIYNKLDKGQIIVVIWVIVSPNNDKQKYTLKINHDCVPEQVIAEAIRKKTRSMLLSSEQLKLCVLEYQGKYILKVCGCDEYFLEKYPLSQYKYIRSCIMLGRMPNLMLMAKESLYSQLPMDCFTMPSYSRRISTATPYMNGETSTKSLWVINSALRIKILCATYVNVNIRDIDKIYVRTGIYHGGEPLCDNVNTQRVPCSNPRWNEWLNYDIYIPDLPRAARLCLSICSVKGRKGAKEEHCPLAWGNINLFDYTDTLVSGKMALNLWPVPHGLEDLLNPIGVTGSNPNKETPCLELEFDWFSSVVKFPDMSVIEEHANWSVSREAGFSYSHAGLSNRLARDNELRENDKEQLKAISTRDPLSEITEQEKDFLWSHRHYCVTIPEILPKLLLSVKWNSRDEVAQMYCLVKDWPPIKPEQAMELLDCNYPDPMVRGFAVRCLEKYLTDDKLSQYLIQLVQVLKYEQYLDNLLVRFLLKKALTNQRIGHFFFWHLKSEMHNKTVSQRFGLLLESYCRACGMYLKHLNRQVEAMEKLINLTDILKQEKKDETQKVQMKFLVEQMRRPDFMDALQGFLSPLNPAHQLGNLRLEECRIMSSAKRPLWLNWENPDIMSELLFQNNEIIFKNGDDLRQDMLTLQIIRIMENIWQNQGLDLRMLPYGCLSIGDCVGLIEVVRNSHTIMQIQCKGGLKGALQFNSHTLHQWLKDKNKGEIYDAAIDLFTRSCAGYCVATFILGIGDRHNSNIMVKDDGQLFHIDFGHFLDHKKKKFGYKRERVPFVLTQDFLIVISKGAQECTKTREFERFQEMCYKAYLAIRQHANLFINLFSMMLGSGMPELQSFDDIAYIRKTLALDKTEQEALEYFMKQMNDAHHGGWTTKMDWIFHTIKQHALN
How it was run: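 Enzyme 10 nM PI3Kα EMV B1075; ATP 1 μM; PI 10 μg/mL; Tris-HCl pH 7.5 10 mM, MgCl2 3 mM, NaCl 50 mM, CHAPS 0.05%, DTT 1 mM; 60 min RT; Kinase-Glo luminescence; 4-parameter IC50 fit, 8 concentrations, single points.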

[6] = test system: PKB Ser473 phosphorylation in Rat1-myr-HA-p110 alpha cells; experiment: Reverse protein array assay, PKB Ser473 phosphorylation in Rat1-myr-p110 alpha cells; assay type: cell-based; conditions: 0.5 h, pAkt Ser473, 30 minutes compound incubation, read-out: p-PKB IC50
How it was run: as §1

[7] = target: T3, PI3K delta (Homo sapiens, UniProt O00329); experiment: PI3K delta kinase assay (Kinase-Glo luminescence); assay type: biochemical
T3 construct: for the full-length p110-d subunit are generated and fused by overlapping PCR; p85(iSH2) fusion partner (see partner chain) (N); His tag (C); made in house; host or cells: baculovirus; Tn5 (Trichoplusia ni) or TiniPro insect cells
T3 sequence (O00329 with tags, fused parts or gaps limits assumed): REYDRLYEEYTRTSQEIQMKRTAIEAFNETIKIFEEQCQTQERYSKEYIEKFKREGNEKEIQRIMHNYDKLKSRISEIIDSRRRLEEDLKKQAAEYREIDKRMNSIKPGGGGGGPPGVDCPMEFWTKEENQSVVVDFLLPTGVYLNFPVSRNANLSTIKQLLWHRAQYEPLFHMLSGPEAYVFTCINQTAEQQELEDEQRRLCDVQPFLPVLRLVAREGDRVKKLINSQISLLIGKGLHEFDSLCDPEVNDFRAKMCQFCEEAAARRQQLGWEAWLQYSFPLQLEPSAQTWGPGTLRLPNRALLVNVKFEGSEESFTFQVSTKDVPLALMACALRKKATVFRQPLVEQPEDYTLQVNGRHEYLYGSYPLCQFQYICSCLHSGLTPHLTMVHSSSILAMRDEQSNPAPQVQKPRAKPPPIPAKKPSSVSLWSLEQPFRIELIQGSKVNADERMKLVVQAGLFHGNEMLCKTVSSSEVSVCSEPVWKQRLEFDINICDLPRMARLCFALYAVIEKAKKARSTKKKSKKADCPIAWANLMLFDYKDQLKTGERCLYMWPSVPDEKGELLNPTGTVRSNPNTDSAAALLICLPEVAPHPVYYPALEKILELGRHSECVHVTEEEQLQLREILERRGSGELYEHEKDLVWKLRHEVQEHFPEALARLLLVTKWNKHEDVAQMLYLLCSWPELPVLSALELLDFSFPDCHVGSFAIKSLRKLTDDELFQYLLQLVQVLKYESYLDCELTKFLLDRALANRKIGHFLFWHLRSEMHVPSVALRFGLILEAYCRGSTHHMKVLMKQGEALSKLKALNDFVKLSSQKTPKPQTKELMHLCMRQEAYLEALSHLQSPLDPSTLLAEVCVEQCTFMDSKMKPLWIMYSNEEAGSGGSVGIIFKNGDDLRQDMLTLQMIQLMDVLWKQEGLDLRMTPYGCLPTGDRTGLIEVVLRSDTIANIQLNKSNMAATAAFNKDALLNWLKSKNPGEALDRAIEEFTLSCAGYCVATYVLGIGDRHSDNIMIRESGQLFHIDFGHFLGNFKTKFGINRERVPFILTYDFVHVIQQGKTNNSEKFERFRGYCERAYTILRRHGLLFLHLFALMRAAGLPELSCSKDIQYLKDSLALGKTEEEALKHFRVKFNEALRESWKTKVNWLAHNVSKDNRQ
How it was run: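 Lipid kinase activity of a His-tagged p110δ full-length/p85 iSH2 fusion (10 nM) toward bovine liver phosphatidylinositol (10 μg/mL) at 1 μM ATP, pH 7.5, 60 min, room temperature. ATP consumption is quantified by luciferase-based luminescence. Four-parameter logistic fitting gives IC50.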

[8] = test system: S6 Ribosomal Protein phosphorylation Ser235/236 in TSC1 null mouse embryo fibroblast (MEF) cells; experiment: Reverse protein array assay, S6 Ribosomal Protein phosphorylation Ser235/236 in TSC1 null MEF cells; assay type: cell-based; conditions: 1 h, pS6 ribosomal protein Ser235/236, 60 minutes incubation, read-out: p-S6 IC50
How it was run: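 TSC1−/− MEFs, seeded and held ≥20 h at 37 °C/5% CO2, were exposed to 8-step serial compound dilutions (0.02% DMSO final; DMSO vehicle control) for 60 min at 37 °C. Cells were then lysed on ice for 10 min and lysates spotted onto reverse protein array chips.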

[9] = pH 6.8, aqueous buffer, thermodynamic from solid, read-out: solubility

T1 sequence (P42345 1360-2549 limits assumed): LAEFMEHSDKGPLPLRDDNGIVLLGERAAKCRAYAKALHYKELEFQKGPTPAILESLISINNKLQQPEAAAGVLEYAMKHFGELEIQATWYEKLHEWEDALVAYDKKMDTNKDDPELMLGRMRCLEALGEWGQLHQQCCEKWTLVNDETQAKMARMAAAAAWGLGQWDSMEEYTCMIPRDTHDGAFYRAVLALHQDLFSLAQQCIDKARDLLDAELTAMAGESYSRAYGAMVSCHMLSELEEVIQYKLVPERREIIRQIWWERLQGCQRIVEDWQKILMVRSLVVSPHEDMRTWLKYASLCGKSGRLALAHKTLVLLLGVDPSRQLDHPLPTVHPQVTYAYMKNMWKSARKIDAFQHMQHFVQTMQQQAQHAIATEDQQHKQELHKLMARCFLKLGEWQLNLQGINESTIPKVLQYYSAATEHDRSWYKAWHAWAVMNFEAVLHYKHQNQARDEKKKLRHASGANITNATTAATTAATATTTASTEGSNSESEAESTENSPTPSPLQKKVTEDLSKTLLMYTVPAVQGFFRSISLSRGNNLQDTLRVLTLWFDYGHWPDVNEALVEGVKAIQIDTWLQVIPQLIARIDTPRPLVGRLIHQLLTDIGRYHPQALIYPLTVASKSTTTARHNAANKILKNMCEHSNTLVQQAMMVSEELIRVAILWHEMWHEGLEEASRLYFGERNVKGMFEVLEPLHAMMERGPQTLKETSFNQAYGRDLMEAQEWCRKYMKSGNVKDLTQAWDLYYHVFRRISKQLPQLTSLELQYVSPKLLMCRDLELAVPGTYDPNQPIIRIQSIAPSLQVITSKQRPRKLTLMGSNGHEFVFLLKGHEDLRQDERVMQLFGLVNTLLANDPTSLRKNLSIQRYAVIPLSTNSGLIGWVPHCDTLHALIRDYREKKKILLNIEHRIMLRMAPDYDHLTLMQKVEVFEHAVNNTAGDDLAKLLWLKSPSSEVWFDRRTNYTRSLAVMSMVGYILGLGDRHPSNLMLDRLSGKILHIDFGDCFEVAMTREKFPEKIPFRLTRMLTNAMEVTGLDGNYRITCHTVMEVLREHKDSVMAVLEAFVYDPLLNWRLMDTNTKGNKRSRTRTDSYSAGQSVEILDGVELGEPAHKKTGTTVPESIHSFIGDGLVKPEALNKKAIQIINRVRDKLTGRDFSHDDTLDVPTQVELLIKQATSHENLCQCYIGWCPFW

Row | Compound | IC50 [1] [nM] | solubility [2, 9] [µg/mL] | IC50 [3] [nM] | IC50 [4] [nM] | IC50 [5] [nM] | IC50 [6] [nM] | IC50 [7] [nM] | IC50 [8] [nM] | solubility ([2]; pH 6.8) [µg/mL]
1 | CN(C)c1ccc(-c2ccc3ncc4c(c3c2)n(-c2ccnn2C)c(=O)n4C)cn1 [Example 4.7, 8-(6-Dimethylamino-pyridin-3-yl)-3-methyl-1-(2-methyl-2H-pyrazol-3-yl)-1,3-dihydro-imidazo[4,5-c]quinolin-2-one] | 505 | 3 (≈ 7.51 µM) | 121 | 547 | 461 | 134 | – | – | –
2 | Cn1nccc1-n1c(=O)n(C)c2cnc3ccc(-c4ccc(C(F)(F)F)nc4)cc3c21 [Example 8.1, 3-Methyl-1-(2-methyl-2H-pyrazol-3-yl)-8-(6-trifluoromethyl-pyridin-3-yl)-1,3-dihydro-imidazo[4,5-c]quinolin-2-one] | 734 | 18 (≈ 42.4 µM) | – | – | 210 | 589 | 167 | – | –
3 | Cc1cc(-n2c(=O)n(C)c3cnc4ccc(-c5cccnc5F)cc4c32)n(C)n1 [Example 9, 1-(2,5-Dimethyl-2H-pyrazol-3-yl)-8-(2-fluoro-pyridin-3-yl)-3-methyl-1,3-dihydro-imidazo[4,5-c]quinolin-2-one] | 383 | 9 (≈ 23.2 µM) | – | – | 246 | – | 737 | – | –
4 | Cc1nn(CC(=O)N(C)C)c(C)c1-n1c(=O)n(C)c2cnc3ccc(-c4ccccc4)cc3c21 [Example 37.4, 2-[3,5-Dimethyl-4-(3-methyl-2-oxo-8-phenyl-2,3-dihydro-imidazo[4,5-c]quinolin-1-yl)-pyrazol-1-yl]-N,N-dimethyl-acetamide] | – | 37 (≈ 81.4 µM) | – | – | 266 | – | – | 844 | –
5 | COCCn1nc(C)c(-n2c(=O)n(C)c3cnc4ccc(-c5ccc(-n6cccn6)cc5)cc4c32)c1C [Example 51.5] | – | 14 (≈ 28.4 µM) | – | 516 | 110 | 17 | 362 | 25 | –
6 | Cc1nn(C)cc1-n1c(=O)n(C)c2cnc3ccc(-c4cnc5c(c4)n(C)c(=O)n5C)cc3c21 [Example 67, 8-(1,3-Dimethyl-2-oxo-2,3-dihydro-1H-imidazo[4,5-b]pyridin-6-yl)-1-(1,3-dimethyl-1H-pyrazol-4-yl)-3-methyl-1,3-dihydro-imidazo[4,5-c]quinolin-2-one] | – | – | 171 | 298 | – | 166 | – | – | 2 (≈ 4.4 µM)
7 | Cc1nn(C)cc1-n1c(=O)n(C)c2cnc3ccc(-c4cnc5c(c4)nc(C)n5C)cc3c21 [Example 73, 8-(2,3-Dimethyl-3H-imidazo[4,5-b]pyridin-6-yl)-1-(1,3-dimethyl-1H-pyrazol-4-yl)-3-methyl-1,3-dihydro-imidazo[4,5-c]quinolin-2-one] | 160 | 41 (≈ 93.5 µM) | 417 | 530 | 173 | 337 | 372 | – | –
8 | CCN(C)c1ccc(-c2ccc3ncc4c(c3c2)n(-c2cn(C(C)C)nc2C)c(=O)n4C)cn1 [Example 98.2, 8-[6-(Ethyl-methyl-amino)-pyridin-3-yl]-1-(1-isopropyl-3-methyl-1H-pyrazol-4-yl)-3-methyl-1,3-dihydro-imidazo[4,5-c]quinolin-2-one] | 30 | 75 (≈ 165 µM) | 18 | 59 | 118 | 10 | 101 | – | –
9 | CCN(C)c1ccc(-c2ccc3ncc4c(c3c2)n(-c2cn(CC)nc2C)c(=O)n4C)cn1 [Example 98.3, 8-[6-(Ethyl-methyl-amino)-pyridin-3-yl]-1-(1-ethyl-3-methyl-1H-pyrazol-4-yl)-3-methyl-1,3-dihydro-imidazo[4,5-c]quinolin-2-one] | 22 | 10 (≈ 22.6 µM) | 16 | 43 | 55 | 12 | 72 | – | –
10 | Cc1nn(C)cc1-n1c(=O)n(C)c2cnc3ccc(-c4cnn(CCO)c4)cc3c21 [Example 106, 1-(1,3-Dimethyl-1H-pyrazol-4-yl)-8-[1-(2-hydroxy-ethyl)-1H-pyrazol-4-yl]-3-methyl-1,3-dihydro-imidazo[4,5-c]quinolin-2-one] | 672 | > 403 | – | – | 154 | – | 147 | – | –
11 | Cc1nn(C)cc1-n1c(=O)n(C)c2cnc3ccc(-c4ccccn4)cc3c21 [Example 114, 1-(1,3-Dimethyl-1H-pyrazol-4-yl)-3-methyl-8-pyridin-2-yl-1,3-dihydro-imidazo[4,5-c]quinolin-2-one] | – | 61 (≈ 165 µM) | 725 | – | – | 303 | – | – | –
12 | Cc1nn(C)cc1-n1c(=O)n(C)c2cnc3ccc(-c4ccnc(N(C)C(C)C)c4)cc3c21 [Example 130, 1-(1,3-Dimethyl-1H-pyrazol-4-yl)-8-[2-(isopropyl-methyl-amino)-pyridin-4-yl]-3-methyl-1,3-dihydro-imidazo[4,5-c]quinolin-2-one] | 494 | 74 (≈ 168 µM) | – | – | 785 | 330 | 386 | – | –
13 | CCOc1ccc(-c2ccc3ncc4[nH]c(=O)n(-c5cn(CC(=O)N6CCN(C)CC6)nc5C)c4c3c2)cn1 [Example 133, 8-(6-Ethoxy-pyridin-3-yl)-1-{3-methyl-1-[2-(4-methyl-piperazin-1-yl)-2-oxo-ethyl]-1H-pyrazol-4-yl}-1,3-dihydro-imidazo[4,5-c]quinolin-2-one] | 13 | 72 (≈ 137 µM) | – | – | 938 | – | 932 | 508 | –
14 | Cc1nn(C)cc1-n1c(=O)n(C)c2cnc3ccc(-c4cnc(N5CCCC5)nc4)cc3c21 [Example 140.2, 1-(1,3-Dimethyl-1H-pyrazol-4-yl)-3-methyl-8-(2-pyrrolidin-1-yl-pyrimidin-5-yl)-1,3-dihydro-imidazo[4,5-c]quinolin-2-one] | – | – | 36 | 62 | – | 29 | – | 6 | 2 (≈ 4.54 µM)
15 | COCc1cc(-c2ccc3ncc4c(c3c2)n(-c2cn(C)nc2Cl)c(=O)n4C)cnc1N [Example 168.3, 8-(6-Amino-5-methoxymethyl-pyridin-3-yl)-1-(3-chloro-1-methyl-1H pyrazol-4-yl)-3-methyl-1,3-dihydro-imidazo[4,5-c]quinolin-2-one] | < 3 | 14 (≈ 31.1 µM) | 6 | 7 | – | 10 | – | < 0.5 | –
16 | Cc1nn(C)cc1-n1c(=O)n(C)c2cnc3ccc(-c4ccc(N5CC[C@H](O)C5)nc4)cc3c21 [Example 212.2, 1-(1,3-Dimethyl-1H-pyrazol-4-yl)-8-[6-((S)-3-hydroxy-pyrrolidin-1-yl)-pyridin-3-yl]-3-methyl-1,3-dihydro-imidazo[4,5-c]quinolin-2-one] | 92 | 43 (≈ 94.4 µM) | 185 | – | 215 | 115 | 647 | – | –
17 | CCNC(=O)c1cc(-c2ccc3ncc4c(c3c2)n(-c2c(C)nn(C)c2C)c(=O)n4C)cnc1NC [Example 242.2, N-Ethyl-2-methylamino-5-[3-methyl-2-oxo-1-(1,3,5-trimethyl-1H-pyrazol-4-yl)-2,3-dihydro-1H-imidazo[4,5-c]quinolin-8-yl]-nicotinamide] | – | > 485 | 995 | 895 | – | 371 | – | 88 | –
